Measured values as given in US20250326795A1, “USE OF D-ENANTIOMERIC PEPTIDE LIGANDS OF MONOMERIC TAU FOR THE THERAPY OF VARIOUS TAUOPATHIES” (PRIAVOID GMBH, priority 2021, published 2025).
Like-named read-outs stand apart in the source and are kept apart here. Where a SMILES comes first, the peptide text is derived from it. [ ]: non-standard residue; d: D form.

Assays:
tau = tau (Homo sapiens, UniProt P10636); assay: ThT assay of heparin-induced tau aggregation (with AFM analysis); format: biochemical; settings: 15 μM tau, 8 μM heparin, 20 μM ThT; for effect on tau aggregation (ThT analysis): 15 μM peptide, 37° C., PBS pH 7.4 (FIG. 1)
Method: The effects of TF2D-1 and TF2D-5 on tau aggregation are shown. The ThT assay was performed by incubation of 15 μM tau with 8 μM heparin, 20 μM THT and 15 μM of either of the two peptides TF2D-1 or TF2D-5 at 37° C. in PBS pH 7.4. The sample without addition of the peptide is shown in red. The samples in which TF2D-1 or TF2D-5 was present are shown in green (TF2D-1) and blue (TF2D-5).
Shown are the effects of TF2D-5 on tau aggregation. The ThT assay was performed by incubation of 15 μM tau with 8 μM heparin, 20 μM ThT, 10% DMSO and different concentrations of TF2D-5 at 37° C. pH 7.0. The images next to the graph show the respective AFM measurements of each sample taken after 5 days. […] The image marked with C corresponds to the blue ThT curve without dilution, where TF2D-5 was added after 24 hours. All AFM measurements were performed by drying 1 μl on a mica, followed by two wash steps with 100 μl water and measurement on JPK Nanowizard3 with intermittent contact air and an OMCL AC160TS as cantilever.

[1] = Stability study in different simulated human body fluids; format: in vitro ADME; settings: simulated gastric fluid pH 1, simulated intestinal fluid pH 6.8, human blood plasma, human liver microsomes (FIG. 6)
Method: Stability study of TF2D-5 and TF2D-5a in different simulated human body fluids. A) Stability of the peptides in simulated gastric fluid (SGF). The simulated gastric fluid consisted of 2 mg/ml sodium chloride, 3.2 mg/ml pepsin and 80 mM HCl; pH 1. B) Stability of TF2D-5 and TF2D-5a in simulated intestinal fluid (SIF). Simulated intestinal fluid consisted of 6.8 mg/ml potassium dihydrogen phosphate, 10 mg/ml pancreatic powder and 15.4 mM NaOH; pH 6.8. C) Stability of TF2D 5 and TF2D-5a in human blood plasma. Human K3EDTA blood plasma was obtained from BioTrend. D) Stability of TF2D-5 and TF2D-5a in human liver microsomes. Human liver microsomes consisted of 6 mg/ml protein (containing cytochrome P450 (CYP) enzymes), 75 mM sucrose, 1.3 mM NADPH, 3.3 mM D-glucose-6-phosphate, 0.2 u/ml D-glucose-6-phosphate dehydrogenase, 3.3 mM magnesium chloride and 100 mM potassium phosphate pH 7.4.

[2] = target: T1, monomeric full-length tau 441 (Homo sapiens, UniProt P10636); assay: SPR measurement of peptide binding to tau; settings: for Kd: SPR T200 Biacore, peptide immobilised on CM5 chip, monomeric tau as analyte, TBS pH 7.4, 0.05% Tween 20, DTT, 1:1 model (FIG. 2b)
T1 construct: SPR measurement of TF2D-5 and TF2D-5a with full-length tau 441
Method: SPR measurements of TF2D-5 with the analyte tau. Seven concentrations of tau were prepared for the measurement, with the highest concentration at 100 nM and the lowest concentration at 1.56 nM. The running buffer contained TBS with 0.1% Tween. The Koff was determined to be approximately 6×10-5 s-1.
The tau concentration during the measurement varied from 3.125 nM to 25 nM. […] Tau was used at concentrations from 31.25 nM to 500 nM. SPR measurements of A and B were recorded on a T200 Biacore instrument, the respective peptide was immobilised on a CM5 chip from Cytiva, while monomeric tau served as the analyte. The tests were performed using TBS pH 7.4, 0.05% Tween […] DTT as running buffer. The fit calculation was performed using the internal evaluation software of the T200 Biacore. A 1:1 model was used for both fits.

tau in full-length = target: T2, tau in full-length (Homo sapiens, UniProt P10636); assay: MST measurement of CF633-labelled peptides with tau in full-length; format: binding; settings: read-out: KD (MST, Boltzmann fit)
T2 construct: MST measurement of TF2D-5, TF2D-5a and CP1 with tau in full-length
Method: MST measurement of TF2D-5, TF2D-5a and CP1 with tau in full-length. A) Boltzmann fit of TF2D-5 MST measurements with tau in full-length. TF2D-5 was labelled with CF633. The concentration of TF2D-5 was 500 nM, while the concentration of tau in full-length was between 2.5 μM and 0.2 pM. The measurement was performed in 1×PBS pH 7.4 with 150 mM NaCl. […] B) Boltzmann fit of TF2D-5a MST measurements with tau in full length. TF2D-5a was labelled with CF633. The concentration of TF2D-5a was 62.5 nM, while the concentration of tau in full-length varied between 300 nM and 0.5 nM. The measurement was performed in 0.1 M sodium phosphate buffer pH 7.4 with 75 mM sodium sulphate and 0.05% Tween 20. […] C) Average of the CP1-MST measurements with tau in full length. CP1 consists of the same amino acids as TF2D-5, but with a different distribution of the amino acids. CP1 was labelled with CF633. The concentration of CP1 was 62.5 nM, while the concentration of tau in full-length varied between […] and 0.2 pM. The measurement was performed in 0.1 M sodium phosphate buffer pH 7.4 with 75 mM sodium sulphate and 0.05% Tween 20. […] D) Calculated KDs of the individual peptides to tau in full-length at a glance. All experiments were repeated four times and the average of all measurements was calculated, which in turn was used to calculate the fits (Boltzmann).

tauk18 (LM)-YFP cells = assay: Inhibition of tau aggregation in cells seeded with sonified tau fibrils; format: cell-based; settings: three-day treatment
Method: A) TF2D-5a and the D-peptide CP-1, as negative control, were tested for their ability to inhibit the tau aggregation in tauk18 (LM)-YFP cells. The scale bar corresponds to 50 μm and applies to b-d. The significance was calculated using a one-way ANOVA followed by Dunnett's test for multiple comparisons. Three asterisks represent a p-value of less than 0.001 and four asterisks a p-value of less than 0.0001.

Sequence of tau (P10636 1-441 isoform P10636-8): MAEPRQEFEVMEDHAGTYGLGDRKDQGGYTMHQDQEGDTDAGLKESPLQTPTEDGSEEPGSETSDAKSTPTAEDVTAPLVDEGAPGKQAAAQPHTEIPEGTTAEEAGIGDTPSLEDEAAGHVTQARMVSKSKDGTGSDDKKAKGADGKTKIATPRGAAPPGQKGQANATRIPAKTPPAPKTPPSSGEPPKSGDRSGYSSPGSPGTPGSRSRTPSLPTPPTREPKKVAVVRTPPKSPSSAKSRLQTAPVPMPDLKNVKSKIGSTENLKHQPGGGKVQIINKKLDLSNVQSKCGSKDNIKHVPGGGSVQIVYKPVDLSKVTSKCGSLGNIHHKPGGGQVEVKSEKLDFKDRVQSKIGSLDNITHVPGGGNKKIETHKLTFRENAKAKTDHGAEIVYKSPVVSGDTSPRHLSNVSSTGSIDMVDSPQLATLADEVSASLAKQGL
T1 sequence (P10636 1-441 isoform P10636-8): as above
T2 sequence (P10636 1-441 isoform P10636-8): as above

Compound | effect on tau aggregation (ThT analysis) (tau) | stability in different body fluids [1] | effect on tau aggregation (ThT and AFM analysis) (tau; 10% DMSO, different concentrations of TF2D-5, 37° C., pH 7.0, AFM after 5 days (FIG. 3)) | Kd [2] [nM] | koff ([2]; SPR, analyte tau 1.56-100 nM, running buffer TBS with 0.1% Tween (FIG. 2a)) [s⁻¹] | Kd (tau in full-length; 500 nM labelled peptide, tau 2.5 μM to 0.2 pM, 1×PBS pH 7.4 with 150 mM NaCl (FIG. 4A)) [nM] | effect on number of cells with tau aggregates (tauk18 (LM)-YFP cells; cells seeded with sonified tau fibrils (FIG. 5)) | concentration at which reduction in number of cells with tau aggregates was significant (tauk18 (LM)-YFP cells; further reduced at 25 μM and 50 μM, one-way ANOVA, Dunnett's test) [UM] | Kd (tau in full-length; 62.5 nM labelled peptide, tau 300 nM to 0.5 nM, 0.1 M sodium phosphate buffer pH 7.4, 75 mM sodium sulphate, 0.05% Tween 20 (FIG. 4B)) [nM]
Nemylwhwqypqhlrvg (H-[dN][dE][dM][dY][dL][dW][dH][dW][dQ][dY][dP][dQ][dH][dL][dR][dV]G-NH2; SMILES CSCC[C@@H](NC(=O)[C@@H](CCC(=O)O)NC(=O)[C@H](N)CC(N)=O)C(=O)N[C@H](Cc1ccc(O)cc1)C(=O)N[C@H](CC(C)C)C(=O)N[C@H](Cc1c[nH]c2ccccc12)C(=O)N[C@H](Cc1c[nH]cn1)C(=O)N[C@H](Cc1c[nH]c2ccccc12)C(=O)N[C@H](CCC(N)=O)C(=O)N[C@H](Cc1ccc(O)cc1)C(=O)N1CCC[C@@H]1C(=O)N[C@H](CCC(N)=O)C(=O)N[C@H](Cc1c[nH]cn1)C(=O)N[C@H](CC(C)C)C(=O)N[C@H](CCCNC(=N)N)C(=O)N[C@@H](C(=O)NCC(N)=O)C(C)C) [TF2D-1] | inhibit tau aggregation | – | – | – | – | – | – | – | –
CC[C@@H](C)[C@@H](NC(=O)[C@@H](Cc1c[nH]cn1)NC(=O)CNC(=O)CNC(=O)[C@H]1CCCN1C(=O)[C@H](NC(=O)[C@@H](CCCCN)NC(=O)[C@@H](Cc1ccccc1)NC(=O)[C@@H](CC(C)C)NC(=O)[C@H](NC(=O)[C@@H](CCC(N)=O)NC(=O)[C@@H](Cc1ccc(O)cc1)NC(=O)CNC(=O)CNC(=O)[C@H](N)CC(=O)O)[C@H](C)CC)[C@H](C)CC)C(=O)N[C@H](Cc1c[nH]cn1)C(N)=O [TF2D-5, dggyqilfkipgghih] (H-[dD]GG[dY][dQ][dI][dL][dF][dK][dI][dP]GG[dH][dI][dH]-NH2) | inhibit tau aggregation | very stable | inhibits tau aggregation | 1.3 | ~6e-05 | 0.308 | – | – | –
CC[C@@H](C)[C@@H](NC(=O)[C@@H](Cc1c[nH]cn1)NC(=O)CNC(=O)CNC(=O)[C@H]1CCCN1C(=O)[C@H](NC(=O)[C@@H](CCCCN)NC(=O)[C@@H](Cc1ccccc1)NC(=O)[C@@H](CC(C)C)NC(=O)[C@H](NC(=O)[C@@H](CCC(N)=O)NC(=O)[C@@H](Cc1ccc(O)cc1)NC(=O)CNC(=O)CNC(=O)[C@H](N)CC(=O)O)[C@H](C)CC)[C@H](C)CC)C(=O)N[C@H](Cc1c[nH]cn1)C(=O)N[C@H](CCCNC(=N)N)C(=O)N[C@H](CCCNC(=N)N)C(=O)N[C@H](CCCNC(=N)N)C(=O)N[C@H](CCCNC(=N)N)C(=O)N[C@H](CCCNC(=N)N)C(N)=O [TF2D-5a, dggyqilfkipgghihrrrrr] (H-[dD]GG[dY][dQ][dI][dL][dF][dK][dI][dP]GG[dH][dI][dH][dR][dR][dR][dR][dR]-NH2) | – | very stable | – | 6.1 | – | – | concentration-dependent reduction in the number of cells with tau aggregates | 12.5 | 11.7
